According to patent publication US11351144B2, “Compounds for inhibiting secretory leukocyte protease inhibitor (SLPI)” (The General Hospital Corporation, priority 2017, dated 2022):
“Also recorded” adds a separate entry of the source.

B1: recombinant SLPI protein: recombinant secretory leukocyte protease inhibitor protein added to cells at 1.5 μg/mL (protein, UniProt P03973 26-132, looked up)
Antileukoproteinase: SGKSFKAGVCPPKKSAQCLRYKKPECQSDWQCPGKKRCCPDTCGIKCLDPVDTPNPTRRKPGKCPVTYGQCLMLNPPNFCEMDGQCKRDLKCCMGMCGKSCVSPVKA

Legend:
[1] = tested on: SLPI expression (luciferase plasmid driven by the SLPI promoter); assay: High-throughput screening: luciferase reporter driven by the SLPI promoter in MDA-MB-468 cells; type: cell-based, human; conditions: 0.31 to 5 μM (five concentrations), 24 hours
From the text: Human triple-negative MDA-MB-231, LS174T, HEK293T and MCF-7 and MDA-MB 468 cell lines were obtained from the ATCC collection. MDA-MB-468 cells stably expressing luciferase plasmid driven by the SLPI promoter were used for high-throughput screening. To generate SLPI overexpressing cells, cancer cells were infected with pBabe-SLPI retroviruses containing the LTR promoter and puromycin resistant genes. The SLPI knockdown 4T1 cell line was established by lentiviral infection of 4T1 cells. Lentiviral particles were produced by transfecting 293T cells with two different shRNA clones that targeted SLPI (MISSION shRNA Sigma) and viral packages (VSVG,psPAX2) using FuGENE reagent (Promega, US). SLPI down-regulation was confirmed by using both q-PCR and ELISA.
After establishing that SLPI is a valid target for inhibiting TNBC metastasis, small molecules for use in inhibiting SLPI pharmacologically were screened. Human TNBC cell line MDA-MB-468 with a Luciferase plasmid driven by the SLPI promoter was used to perform high-throughput screening of a small-molecule library of 60,000 chemically-diverse compounds. Compounds (5 μM) were diluted in 100% DMSO, and spotted per well to 384-well plates using a Multimek 96/384 Channel Automated Pipetter. A cell-based readout system was used for compound selection. […] Selected compounds were also analyzed with 90% of SLPI repression. […]

MDA-MB-468 cancer cells = assay: MTT cell viability assay, MDA-MB-468; type: cell-based, human; conditions: MDA-MB-468 cells, 24 hours
4T1 cancer cells = assay: MTT cell viability assay, 4T1; type: cell-based, murine; conditions: 4T1 cells, 24 hours
[2] = tested on: normal human umbilical vein endothelial cells (HUVEC); assay: MTT cell viability assay, HUVEC; type: cell-based; conditions: 24 hours
4T1 TNBC = assay: Orthotopic 4T1 TNBC tumor growth and spontaneous lung metastases in BALB/c mice; type: in vivo
Description: Next, we tested whether treatment with the selected SLPI inhibitor C74 would decrease metastasis in vivo. Parental and modified 4T1 cells were injected into the third mammary fat pad of 8-week-old female BALB/C mice, 10^5 cells in 20 μL of HANKS per injection. The growing tumors were then either resected at a certain size or left as is. In the latter case, the mice were treated daily with intraperitoneal (i.p.) delivery of 20 mg/kg of the selected compound suppressing SLPI (or vehicle), for 12 consecutive days starting from day 6 after tumor implantation, when tumors were ˜3.8 mm in diameter on average (see FIG. 3D). The mice were sacrificed either on day 21 post primary tumor resection or 17 days after compound treatment initiation. The lungs were removed and placed in Bouin's solution (Sigma). A few days later, the lung surface was examined under a stereomicroscope and the number and size of metastases were evaluated.

[3] = tested on: retinoblastoma (Rb) tumor suppressor protein phosphorylation; assay: Western blot of Rb phosphorylation in MDA-MB-231 and MCF7 cells; type: cell-based, human
Description: Lysates from 293T, MDA-MB-231, MCF7 and 4T1 cells were prepared in lysis buffer containing Tris-HCl 50 mM/pH 7.4; NaCl 150 mM; NP-40 1%; SDS 0.1%; Na-deoxycholate 0.5%; EDTA 1 mM; plus 1% phosphatase inhibitor cocktails I and II (Sigma-Aldrich, US), and 1% protease inhibitor cocktail (Roche). Equal amounts of protein (50 μg/sample) were resolved by SDS-PAGE, transferred onto nitrocellulose membranes, and immunoblotted using the following primary antibodies: anti-SLPI, anti-RB (Cell Signaling and Santa Cruz Biotechnology, US), anti-SOD2, Aurora kinase, cyclin B1 and anti-β-catenin (Cell Signaling Technology). For co-IP assays, lysates were pre-cleared with IgG, and incubated with anti-SLPI, anti-RB or control IgG antibodies linked to Sepharose-A beads. Protein complexes were dissociated from beads and separated by SDS-PAGE. Immunodetection was performed by incubation with HRP-conjugated species-specific antibodies, followed by chemiluminescence detection (Perkin Elmer, US).

Rb-FoxM1 interaction = assay: Mammalian two-hybrid system, GAL4-Rb and VP16-FoxM1 in HEK293T cells; type: cell-based, human; conditions: 1.5 μg/mL added to cell media, time course
From the text: For further verification of this interaction, a standard mammalian two-hybrid approach was used. The two genes encoding two of the three potentially interactive proteins of interest (Rb, SLPI and FoxM1) were cloned into pBIND and pACT vectors to generate fusion proteins with the DNA-binding domain of GAL4 and the activation domain of VP16. HEK293T cells were transiently transfected with a pG5luc luciferase reporter plasmid, pGAL4 and pVP16 fusion constructs. After two days, the transfected cells were lysed and the levels of luciferase were quantitated. Interaction between the two test proteins results in an increase in luciferase expression over the negative controls that included pBIND and pACT vectors. The pairs of fusion proteins GAL4-Rb plus VP16-SLPI induced activation of the reporter construct about 7 times more than the negative controls, as shown in FIG. 4C.

[4] = tested on: FoxM1 binding to the MMP2 promoter; assay: Electrophoretic mobility shift assay, FoxM1 binding to MMP2 promoter probe; type: cell-based, human; conditions: protein extracts from treated MDA-MB-231 cells versus untreated cells
Description: To directly test the ability of SLPI to modify FoxM1 binding to another target gene, MMP2, we used the electrophoretic mobility shift assay. Electrophoretic mobility shift assays (EMSAs) were performed following manufacture protocol using kit from Thermo Fisher. Double-stranded oligonucleotides from MMP2 promoter with FoxM1 binding site were used: 5′-[…]-3′ (SEQ ID NO: 1). End-labelled DNA was detected using streptavidin-conjugated horseradish peroxidase. For the supershift assay, antibody against FoxM1 (Cell Signaling) was added to the binding reaction for 1 hour on ice.
The MMP2 promoter sequence comprising the FoxM1-binding site (−662 to −671 bp) was biotin-labeled and used as a probe for the protein binding gene promoter region (see e.g., Dai et al, Oncogene, 2007, 26:6212-6219). The probe was incubated with protein extracts from SLPI-treated MDA-MB-231 cells and untreated cells. […] The binding of this protein to the probe was sequence-specific, as it was blocked by competition with an unlabeled FoxM1 oligomer. To confirm that FoxM1 bound to MMP2 promoter in the presence of SLPI, a supershift assay was performed by adding FoxM1-binding antibody to that protein-DNA complex. The enhanced probe retardation is shown in lane 5 in FIG. 6A.

[5] = 20 mg/kg i.p. daily for 12 days, lungs evaluated on day 23

Row | Molecule | SLPI expression quantified using luciferase activity driven by the SLPI promoter [1] | toxic effect (cell viability, MTT assay) (MDA-MB-468 cancer cells) | toxic effect (cell viability, MTT assay) (4T1 cancer cells) | toxic effect (cell viability, MTT assay) [2] | changes in mouse weight, appearance, or behavior (4T1 TNBC; 20 mg/kg i.p. daily for 12 days) | decrease of total number of lung metastases (4T1 TNBC; [5]) [%] | size of lung metastatic colonies (4T1 TNBC; [5]) | primary tumor growth (tumor diameter) (4T1 TNBC; 4T1 in mammary fat pad, 20 mg/kg i.p. daily for 12 days from day 6, 20 mg/kg) | Rb phosphorylation (phospho-Rb Western blot) ([3]; 1 μM for 16 h) | Rb phosphorylation (phospho-Rb Western blot) ([3]; recombinant protein 1.5 μg/mL, as early as 1-2 h post treatment) | reporter construct activation (Rb-FoxM1 binding) (Rb-FoxM1 interaction) | binding activity of FoxM1 to MMP2 promoter probe [4]
1 | CCCOC(=O)c1cccc(NC(=O)COc2ccccc2Cl)c1 [Compound C74, propyl 3-(2-(2-chlorophenoxy)acetamido)benzoate] | inhibition of SLPI expression; also recorded: Dose dependence of SLPI repression was confirmed | no toxic effect | no toxic effect | no toxic effect | did not cause changes | 50 | much smaller | suppressed tumor growth and metastasis; also recorded: small, progressive inhibition of primary tumor growth | repressed Rb phosphorylation; also recorded: decreased phosphorylation of Rb | – | – | –
2 | B1 | – | – | – | – | – | – | – | – | – | increased phosphorylation of Rb | progressive decrease of reporter construct activation | substantial increase in binding activity of FoxM1
